Assay results: paper PMC11378297, “Discovery and Profiling of New Multimodal Phenylglycinamide Derivatives as Potent Antiseizure and Antinociceptive Drug Candidates” (ACS Chemical Neuroscience, 2024)
Where two headings read alike, the source gives them in different places.

Experiments:
[1] = system: OXPT-induced tactile allodynia, mice; test: oxaliplatin (OXPT)-induced peripheral neuropathy, von Frey test
Protocol: In experimental conditions, these mechanisms trigger mechanical allodynia, which can be observed as a decrease in the pain threshold, as assessed by the von Frey test.[37]
We tested (R)-31 at the doses of 50, 75, and 100 mg/kg (Figure 7C).
The experimental groups consisted of 10 adult male Albino Swiss mice (CD-1, 18–25 g). Each animal was tested only once. Immediately after the assay, the animals were sacrificed by cervical dislocation. Behavioral measurements were observed by trained observers. […] The tested materials were administered intraperitoneally half an hour before the test, after being suspended in a 1% aqueous solution of Tween-80. 30 min before the test, the animals in the control group (negative control) received an appropriate dose of the vehicle (Tween-80, 1% aqueous solution, i.p.).

[2] = molecular target: T1, Voltage-Gated Sodium channel hNav1.2 (Homo sapiens, UniProt Q99250); test: human sodium ion channel cell based automated patch clamp assay, hNav1.2
T1 construct: Eurofins Discovery (St. Charles, MO, USA)
Protocol: (§1) Therefore, as a part of the more detailed functional characterization using automated patch clamp method, we tested the influence of (R)-32 on sodium currents mediated by several Navx channels comprising 5 different human subunits, namely, Nav1.1, Nav1.2, Nav1.3, Nav1.6, and Nav1.7, which are involved in both seizure and/or pain modulation.[74],[80],[81] As summarized in Tables S4–S8, (R)-32 starting from 10 μM effectively and in concentration-dependent manner decreased sodium currents mediated by all aforementioned sodium channel subunits. Furthermore, (R)-32 appeared to bind exclusively to sodium channels that are in an inactivated state (see pulse 2 in Tables S4–S8), but not to the channels that are in an open state (pulse 1) (for additional details, see Supporting Information).
(§2) Human sodium ion channels cell based automated patch clamp assay
Human sodium ion channels cell based automated patch clamp assays: sodium channels exist in, a) a resting or closed state at -120 mV, b) a transient open state that inactivates to c) inactivated state at -10 mV. Sodium current inhibition within 1-2 ms of channel opening at 0 mV is open channel inhibition (pulse 1). In order to completely inactivate the sodium channels and facilitate inactivated state-dependent binding of the drug, the channels were kept at […] ( -10 mV) longer (pulsed for 500 ms) and then stepped back to -120 mV for 10 ms to recover from inactivation into resting or closed state (but the channels that had drug bound to them will not recover from inactivation and will not open) before stepping to -10 mV for 50 ms (pulse 2) to mea sure sodium channels that are available to open. The higher inhibition seen at pulse 2 is due to inactivated state -dependent inhibition. Pulse 1 and 2 are used to investigate drug binding to the open state and inactivated state of the Na channels, respectively. Each concentration of compound is applied for 5 minutes. The results obtained for (R)-32 are summerized in Tables S4–S8. […]
(§3) Compound Concentration Measurement % Inhibition
(§4) Data interpretation: Results showing inhibition greater than 50% are considered to represent significant effects of test compound and have been bolded for (R)-32 for better visualization. The studies were carried out in Eurofins Discovery (St. Charles, MO, USA).

[3] = molecular target: T2, Voltage-Gated Sodium channel hNav1.1 (Homo sapiens, UniProt P35498); test: human sodium ion channel cell based automated patch clamp assay, hNav1.1
T2 construct: Eurofins Discovery (St. Charles, MO, USA)
Protocol: as §1, §2
Human sodium ion channels cell based automated patch clamp assays: sodium channels exist in, a) a resting or closed state at -120 mV, b) a transient open state that inactivates to c) inactivated state at -10 mV. Sodium current inhibition within 1-2 ms of channel opening at 0 mV is open channel inhibition (pulse 1). In order to completely inactivate the sodium channels and facilitate inactivated state-dependent binding of the drug, the channels were kept at […] ( -10 mV) longer (pulsed for 500 ms) and then stepped back to -120 mV for 10 ms to recover from inactivation into resting or closed state (but the channels that had drug bound to them will not recover from inactivation and will not open) before stepping to -10 mV for 50 ms (pulse 2) to mea sure sodium channels that are available to open. The higher inhibition seen at pulse 2 is due to inactivated state -dependent inhibition. Pulse 1 and 2 are used to investigate drug binding to the open state and inactivated state of the Na channels, respectively. Each concentration of compound is applied for 5 minutes. The results obtained for (R)-32 are summerized in Tables S4–S8.
Table S4. Effect of the (R)-32 on subunit Nav1.1.
Voltage-Gated Sodium channel hNav1.1
as §3, §4

[4] = molecular target: T3, TRPA1 (h) (Homo sapiens, UniProt O75762); test: TRPA1 (h) cell based antagonist calcium flux assay; settings: HEK293, human recombinant HEK-293 cell, read-out: % inhibition of control agonist response
T3 construct: Eurofins
Protocol: (§5) Using previously described testing methodologies, binding/functional tests were conducted on a commercial basis at Eurofins Laboratories (Poitiers, France) and Eurofins Panlabs Discovery Services Taiwan, Ltd. (New Taipei City, Taiwan); see Table S9 for more information.
(§6) Table S9. Radioligand binding and functional assays. […]
TRPA1 (h) transient potential ion channel cell based antagonist calcium flux assay […]
(§7) Assays were performed commercially in Eurofins Laboratories (Poitiers, France) or Eurofins Panlabs Discovery Services
(§8) Taiwan, Ltd. (New Taipei City, Taiwan).

[5] = molecular target: T4, TRPM8 (h) (Homo sapiens, UniProt Q7Z2W7); test: TRPM8 (h) (antagonist effect); format: cell-based; settings: HEK293, human recombinant HEK-293 cell, read-out: % inhibition of control agonist response
T4 construct: Eurofins
Protocol: as §5, §6
TRPM8 (h) (antagonist effect) […]
as §7, §8

[6] = hNav1.2, Pulse 1 (open state), read-out: % Inhibition Mean
[7] = hNav1.2, Pulse 1 (open state), read-out: % Inhibition n1
[8] = hNav1.2, Pulse 1 (open state), read-out: % Inhibition n2
[9] = hNav1.2, Pulse 2 (inactivated state), read-out: % Inhibition Mean
[10] = hNav1.2, Pulse 2 (inactivated state), read-out: % Inhibition n1
[11] = hNav1.2, Pulse 2 (inactivated state), read-out: % Inhibition n2
[12] = hNav1.1, Pulse 1 (open state), read-out: % Inhibition Mean
[13] = hNav1.1, Pulse 1 (open state), read-out: % Inhibition n1
[14] = hNav1.1, Pulse 1 (open state), read-out: % Inhibition n2
[15] = hNav1.1, Pulse 2 (inactivated state), read-out: % Inhibition Mean
[16] = hNav1.1, Pulse 2 (inactivated state), read-out: % Inhibition n1
[17] = hNav1.1, Pulse 2 (inactivated state), read-out: % Inhibition n2

T1 sequence (Q99250 whole entry): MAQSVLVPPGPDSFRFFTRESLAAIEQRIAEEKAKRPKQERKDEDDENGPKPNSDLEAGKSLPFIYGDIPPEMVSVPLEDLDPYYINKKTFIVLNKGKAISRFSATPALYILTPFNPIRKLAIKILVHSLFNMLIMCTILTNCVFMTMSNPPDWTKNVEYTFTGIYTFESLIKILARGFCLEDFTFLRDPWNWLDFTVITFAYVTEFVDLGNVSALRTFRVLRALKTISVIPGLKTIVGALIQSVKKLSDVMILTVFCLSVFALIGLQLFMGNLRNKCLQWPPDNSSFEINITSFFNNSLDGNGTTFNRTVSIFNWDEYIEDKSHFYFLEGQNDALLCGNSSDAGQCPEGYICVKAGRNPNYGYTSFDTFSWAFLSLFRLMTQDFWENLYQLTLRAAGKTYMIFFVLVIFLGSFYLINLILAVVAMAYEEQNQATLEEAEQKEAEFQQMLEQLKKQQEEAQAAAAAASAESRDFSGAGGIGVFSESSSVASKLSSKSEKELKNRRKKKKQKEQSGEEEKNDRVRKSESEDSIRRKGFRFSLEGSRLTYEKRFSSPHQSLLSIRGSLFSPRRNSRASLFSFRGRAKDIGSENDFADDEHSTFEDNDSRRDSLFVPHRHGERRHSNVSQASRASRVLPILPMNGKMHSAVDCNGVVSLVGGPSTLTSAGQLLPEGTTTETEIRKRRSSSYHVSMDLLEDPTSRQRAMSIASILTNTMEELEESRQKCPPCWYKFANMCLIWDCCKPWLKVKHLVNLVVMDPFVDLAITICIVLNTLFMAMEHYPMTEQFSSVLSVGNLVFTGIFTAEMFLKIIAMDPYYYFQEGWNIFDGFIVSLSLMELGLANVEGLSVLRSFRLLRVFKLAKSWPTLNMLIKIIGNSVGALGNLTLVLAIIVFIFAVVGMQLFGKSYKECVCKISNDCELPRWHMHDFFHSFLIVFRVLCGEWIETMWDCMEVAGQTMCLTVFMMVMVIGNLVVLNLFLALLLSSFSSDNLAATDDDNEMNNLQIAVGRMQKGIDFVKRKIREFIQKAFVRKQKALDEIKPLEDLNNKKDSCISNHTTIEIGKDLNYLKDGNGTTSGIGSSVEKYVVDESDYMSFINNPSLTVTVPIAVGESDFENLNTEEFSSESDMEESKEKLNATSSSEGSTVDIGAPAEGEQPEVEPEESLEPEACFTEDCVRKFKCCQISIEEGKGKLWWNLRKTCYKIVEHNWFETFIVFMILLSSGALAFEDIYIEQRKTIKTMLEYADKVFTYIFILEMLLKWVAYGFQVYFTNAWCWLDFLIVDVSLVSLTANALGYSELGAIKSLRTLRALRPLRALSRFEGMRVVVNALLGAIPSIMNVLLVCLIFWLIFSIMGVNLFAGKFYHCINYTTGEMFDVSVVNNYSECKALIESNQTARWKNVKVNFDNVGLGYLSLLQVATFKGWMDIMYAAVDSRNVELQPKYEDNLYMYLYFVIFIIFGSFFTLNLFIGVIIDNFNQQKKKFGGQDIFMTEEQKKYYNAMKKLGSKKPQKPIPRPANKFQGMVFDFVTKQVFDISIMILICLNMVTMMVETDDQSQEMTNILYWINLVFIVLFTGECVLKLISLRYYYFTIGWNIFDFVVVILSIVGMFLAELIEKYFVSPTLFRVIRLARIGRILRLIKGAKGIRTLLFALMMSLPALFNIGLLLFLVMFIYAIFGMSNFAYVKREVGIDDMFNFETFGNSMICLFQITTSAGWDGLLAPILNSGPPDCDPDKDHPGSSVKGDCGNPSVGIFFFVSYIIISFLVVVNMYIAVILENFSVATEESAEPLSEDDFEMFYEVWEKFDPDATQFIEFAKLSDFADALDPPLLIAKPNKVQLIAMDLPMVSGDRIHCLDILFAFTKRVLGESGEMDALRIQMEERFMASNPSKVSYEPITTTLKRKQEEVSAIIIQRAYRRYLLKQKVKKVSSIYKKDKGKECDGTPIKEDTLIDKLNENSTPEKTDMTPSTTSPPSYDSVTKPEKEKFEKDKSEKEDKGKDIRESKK
T3 sequence (O75762 whole entry): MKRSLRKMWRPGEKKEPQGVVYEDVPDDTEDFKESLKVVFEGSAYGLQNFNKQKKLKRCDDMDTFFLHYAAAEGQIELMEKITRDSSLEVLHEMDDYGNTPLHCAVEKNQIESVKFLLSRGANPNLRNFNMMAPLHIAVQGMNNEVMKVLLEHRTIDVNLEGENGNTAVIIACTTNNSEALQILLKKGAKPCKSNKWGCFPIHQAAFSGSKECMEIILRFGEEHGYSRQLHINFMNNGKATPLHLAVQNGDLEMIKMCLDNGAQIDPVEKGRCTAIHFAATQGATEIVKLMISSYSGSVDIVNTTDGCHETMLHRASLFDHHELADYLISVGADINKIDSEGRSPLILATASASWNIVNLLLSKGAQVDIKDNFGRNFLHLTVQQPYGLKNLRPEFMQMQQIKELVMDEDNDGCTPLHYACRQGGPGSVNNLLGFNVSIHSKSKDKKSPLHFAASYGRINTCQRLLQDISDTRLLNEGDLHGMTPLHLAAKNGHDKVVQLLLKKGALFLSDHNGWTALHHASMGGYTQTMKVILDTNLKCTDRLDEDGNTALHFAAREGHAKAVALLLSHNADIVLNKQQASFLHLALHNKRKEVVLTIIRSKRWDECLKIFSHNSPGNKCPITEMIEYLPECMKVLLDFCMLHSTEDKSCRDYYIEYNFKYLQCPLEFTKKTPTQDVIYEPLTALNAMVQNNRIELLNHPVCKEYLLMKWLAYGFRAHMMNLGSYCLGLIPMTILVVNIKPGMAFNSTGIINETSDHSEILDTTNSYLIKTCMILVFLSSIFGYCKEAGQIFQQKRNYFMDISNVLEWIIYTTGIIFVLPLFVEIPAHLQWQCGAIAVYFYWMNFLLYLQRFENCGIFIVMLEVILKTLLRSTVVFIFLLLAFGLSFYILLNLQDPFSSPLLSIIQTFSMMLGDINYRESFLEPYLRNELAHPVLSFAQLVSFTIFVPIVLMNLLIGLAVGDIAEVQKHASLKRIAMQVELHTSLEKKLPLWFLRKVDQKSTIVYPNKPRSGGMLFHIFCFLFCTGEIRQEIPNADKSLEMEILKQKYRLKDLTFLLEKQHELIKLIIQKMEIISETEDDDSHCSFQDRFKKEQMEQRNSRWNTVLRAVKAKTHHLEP
T4 sequence (Q7Z2W7 whole entry): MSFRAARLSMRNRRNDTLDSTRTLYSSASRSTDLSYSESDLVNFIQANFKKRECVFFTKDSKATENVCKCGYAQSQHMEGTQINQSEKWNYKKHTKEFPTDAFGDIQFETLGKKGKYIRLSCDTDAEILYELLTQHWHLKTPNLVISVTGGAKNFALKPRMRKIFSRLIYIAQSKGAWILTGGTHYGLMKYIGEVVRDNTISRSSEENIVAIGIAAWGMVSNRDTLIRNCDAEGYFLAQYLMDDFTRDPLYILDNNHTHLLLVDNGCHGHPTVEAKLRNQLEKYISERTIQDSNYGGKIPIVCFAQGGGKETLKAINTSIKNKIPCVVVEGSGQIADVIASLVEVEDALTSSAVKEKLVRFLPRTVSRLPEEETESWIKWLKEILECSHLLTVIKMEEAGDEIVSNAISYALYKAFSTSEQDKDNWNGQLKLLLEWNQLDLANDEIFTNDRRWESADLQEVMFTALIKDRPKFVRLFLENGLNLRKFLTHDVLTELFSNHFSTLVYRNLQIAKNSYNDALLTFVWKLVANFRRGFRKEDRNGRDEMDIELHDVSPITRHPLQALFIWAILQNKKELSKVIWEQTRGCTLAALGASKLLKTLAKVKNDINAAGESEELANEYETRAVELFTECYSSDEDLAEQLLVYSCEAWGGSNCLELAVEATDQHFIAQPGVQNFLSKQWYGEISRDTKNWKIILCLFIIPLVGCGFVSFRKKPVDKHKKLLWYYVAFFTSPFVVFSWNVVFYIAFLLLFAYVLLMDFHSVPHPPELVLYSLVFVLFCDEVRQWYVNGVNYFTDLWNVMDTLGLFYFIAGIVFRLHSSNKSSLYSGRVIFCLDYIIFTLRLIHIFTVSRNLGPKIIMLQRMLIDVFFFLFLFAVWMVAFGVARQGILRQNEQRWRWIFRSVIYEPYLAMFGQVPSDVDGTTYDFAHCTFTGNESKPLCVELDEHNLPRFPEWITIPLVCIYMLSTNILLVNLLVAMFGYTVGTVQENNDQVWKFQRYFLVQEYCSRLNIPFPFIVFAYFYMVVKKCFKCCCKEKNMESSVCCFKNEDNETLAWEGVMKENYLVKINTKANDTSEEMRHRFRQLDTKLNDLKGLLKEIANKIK

## CC(=O)N[C@@H](C(=O)N1CCN(c2cccc(OC(F)(F)F)c2)CC1)c1ccccc1 [(R)-32, (R)-N-(2-Oxo-1-phenyl-2-(4-(3-(trifluoromethoxy)phenyl)piperazin-1-yl)ethyl)acetamide]
[1]; 25 mg/kg i.p.
  pain threshold, early phase (3 h after OXPT), % of the baseline: 102%
  pain threshold, late phase (7 days after OXPT), % of the baseline: 68%
[1]; 50 mg/kg i.p.
  pain threshold, early phase (3 h after OXPT), % of the initial value/baseline: 90%
  pain threshold, late phase (7 days after OXPT), % of the baseline: 94%
[1]; 75 mg/kg i.p.
  pain threshold, early phase (3 h after OXPT), % of the initial value/baseline: 109%
  pain threshold, late phase (7 days after OXPT), % of the baseline: 108%
[2]; [6]
  inhibition at 1 µM: 0.79%
  inhibition at 10 µM: 3.6%
  inhibition at 100 µM: 33.5%
[2]; [7]
  inhibition at 1 µM: 1.86%
  inhibition at 10 µM: 2.03%
  inhibition at 100 µM: 35.7%
[2]; [8]
  inhibition at 1 µM: -0.29%
  inhibition at 10 µM: 5.18%
  inhibition at 100 µM: 31.3%
[2]; [9]
  inhibition at 1 µM: 1.62%
  inhibition at 10 µM: 41.9%
  inhibition at 100 µM: 100%
[2]; [10]
  inhibition at 1 µM: 1.9%
  inhibition at 10 µM: 45.5%
  inhibition at 100 µM: 100%
[2]; [11]
  inhibition at 1 µM: 1.33%
  inhibition at 10 µM: 38.2%
  inhibition at 100 µM: 100%
[3]; [12]
  inhibition at 1 µM: 1.61%
  inhibition at 10 µM: 1.2%
  inhibition at 100 µM: 31%
[3]; [13]
  inhibition at 1 µM: 2.91%
  inhibition at 10 µM: -0.28%
  inhibition at 100 µM: 24%
[3]; [14]
  inhibition at 1 µM: 0.31%
  inhibition at 10 µM: 2.68%
  inhibition at 100 µM: 38%
[3]; [15]
  inhibition at 1 µM: 1.92%
  inhibition at 10 µM: 41.9%
  inhibition at 100 µM: 97.6%
[3]; [16]
  inhibition at 1 µM: 1.74%
  inhibition at 10 µM: 45.3%
  inhibition at 100 µM: 97.9%
[3]; [17]
  inhibition at 1 µM: 2.11%
  inhibition at 10 µM: 38.6%
  inhibition at 100 µM: 97.4%
[4]
  inhibition at 10 µM: 9.6%
[5]
  inhibition at 10 µM: 12.6%
